Consider 7 molecules from BindingDB's records for doi:10.1039/c4ob00214h (Lanzhou University, 2014).

The structures appear in SMILES notation. pIC50: −log10 of the molar value.

The target in assay [1] is T1, Tyrosine-protein phosphatase non-receptor type 1 (Homo sapiens, UniProt P18031).
T1 sequence (P18031 whole entry): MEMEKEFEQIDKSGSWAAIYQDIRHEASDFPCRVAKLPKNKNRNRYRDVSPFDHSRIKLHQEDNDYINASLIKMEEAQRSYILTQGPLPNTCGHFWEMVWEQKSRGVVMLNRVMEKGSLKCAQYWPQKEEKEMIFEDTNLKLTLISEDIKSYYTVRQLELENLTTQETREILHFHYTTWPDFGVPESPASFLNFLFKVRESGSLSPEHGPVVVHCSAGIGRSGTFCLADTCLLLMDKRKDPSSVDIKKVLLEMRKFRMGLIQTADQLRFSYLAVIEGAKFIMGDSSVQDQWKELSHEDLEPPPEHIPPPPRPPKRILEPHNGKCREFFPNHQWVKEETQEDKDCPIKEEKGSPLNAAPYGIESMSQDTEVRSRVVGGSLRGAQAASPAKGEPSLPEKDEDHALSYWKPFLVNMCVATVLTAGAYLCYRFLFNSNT

Assay [2] has as its target T2, Tyrosine-protein phosphatase non-receptor type 2 (Homo sapiens, UniProt P17706).
T2 sequence (P17706 whole entry): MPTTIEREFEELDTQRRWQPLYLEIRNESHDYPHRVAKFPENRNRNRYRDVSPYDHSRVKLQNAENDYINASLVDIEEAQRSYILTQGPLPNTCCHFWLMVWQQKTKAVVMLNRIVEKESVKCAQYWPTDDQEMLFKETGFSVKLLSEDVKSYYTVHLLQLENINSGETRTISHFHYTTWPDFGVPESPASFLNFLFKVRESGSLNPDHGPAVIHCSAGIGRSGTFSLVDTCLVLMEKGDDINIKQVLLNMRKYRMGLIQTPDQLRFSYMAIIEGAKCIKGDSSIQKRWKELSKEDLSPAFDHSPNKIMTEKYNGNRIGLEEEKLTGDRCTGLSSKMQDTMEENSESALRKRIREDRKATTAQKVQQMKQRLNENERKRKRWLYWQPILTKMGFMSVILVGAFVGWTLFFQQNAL

Assay [3] addresses T3, M-phase inducer phosphatase 2 (Homo sapiens, UniProt P30305).
T3 sequence (P30305 whole entry): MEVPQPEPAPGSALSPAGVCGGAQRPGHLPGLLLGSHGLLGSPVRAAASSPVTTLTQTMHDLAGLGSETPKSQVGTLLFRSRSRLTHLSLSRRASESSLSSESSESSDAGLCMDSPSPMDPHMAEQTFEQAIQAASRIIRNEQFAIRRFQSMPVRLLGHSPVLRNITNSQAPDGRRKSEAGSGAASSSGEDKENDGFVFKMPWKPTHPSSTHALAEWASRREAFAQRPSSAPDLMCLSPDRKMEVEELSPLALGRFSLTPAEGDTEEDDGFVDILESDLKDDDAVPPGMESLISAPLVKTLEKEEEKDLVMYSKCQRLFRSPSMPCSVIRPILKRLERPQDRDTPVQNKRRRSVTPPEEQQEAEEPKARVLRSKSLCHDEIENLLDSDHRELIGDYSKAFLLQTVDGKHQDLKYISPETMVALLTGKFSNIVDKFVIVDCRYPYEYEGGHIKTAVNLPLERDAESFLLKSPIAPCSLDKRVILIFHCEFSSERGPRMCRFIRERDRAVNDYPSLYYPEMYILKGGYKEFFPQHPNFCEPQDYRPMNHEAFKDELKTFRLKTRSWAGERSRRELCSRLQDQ

The target in assay [4] is Tyrosine-protein phosphatase non-receptor type 6 (Homo sapiens, UniProt P29350).
Sequence of Tyrosine-protein phosphatase non-receptor type 6 (P29350 whole entry): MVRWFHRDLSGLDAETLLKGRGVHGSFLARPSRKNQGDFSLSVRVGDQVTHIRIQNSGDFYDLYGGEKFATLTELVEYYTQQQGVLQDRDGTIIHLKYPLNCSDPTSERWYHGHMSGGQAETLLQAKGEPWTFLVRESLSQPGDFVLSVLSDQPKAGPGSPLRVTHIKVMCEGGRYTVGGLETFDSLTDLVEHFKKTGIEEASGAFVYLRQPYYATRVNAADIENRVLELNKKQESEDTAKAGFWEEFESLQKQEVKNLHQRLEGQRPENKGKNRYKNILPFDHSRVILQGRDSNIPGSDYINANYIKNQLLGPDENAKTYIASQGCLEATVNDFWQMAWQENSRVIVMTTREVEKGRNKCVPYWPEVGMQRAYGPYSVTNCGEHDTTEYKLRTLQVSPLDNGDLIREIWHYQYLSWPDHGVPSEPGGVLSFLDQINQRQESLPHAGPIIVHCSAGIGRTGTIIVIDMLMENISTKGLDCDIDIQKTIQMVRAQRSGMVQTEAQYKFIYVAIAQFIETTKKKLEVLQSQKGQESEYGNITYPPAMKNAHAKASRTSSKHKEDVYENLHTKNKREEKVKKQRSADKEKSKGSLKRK
For assay [5], the target named is T4, Tyrosine-protein phosphatase non-receptor type 11 (Homo sapiens, UniProt Q06124).
T4 sequence (Q06124 whole entry): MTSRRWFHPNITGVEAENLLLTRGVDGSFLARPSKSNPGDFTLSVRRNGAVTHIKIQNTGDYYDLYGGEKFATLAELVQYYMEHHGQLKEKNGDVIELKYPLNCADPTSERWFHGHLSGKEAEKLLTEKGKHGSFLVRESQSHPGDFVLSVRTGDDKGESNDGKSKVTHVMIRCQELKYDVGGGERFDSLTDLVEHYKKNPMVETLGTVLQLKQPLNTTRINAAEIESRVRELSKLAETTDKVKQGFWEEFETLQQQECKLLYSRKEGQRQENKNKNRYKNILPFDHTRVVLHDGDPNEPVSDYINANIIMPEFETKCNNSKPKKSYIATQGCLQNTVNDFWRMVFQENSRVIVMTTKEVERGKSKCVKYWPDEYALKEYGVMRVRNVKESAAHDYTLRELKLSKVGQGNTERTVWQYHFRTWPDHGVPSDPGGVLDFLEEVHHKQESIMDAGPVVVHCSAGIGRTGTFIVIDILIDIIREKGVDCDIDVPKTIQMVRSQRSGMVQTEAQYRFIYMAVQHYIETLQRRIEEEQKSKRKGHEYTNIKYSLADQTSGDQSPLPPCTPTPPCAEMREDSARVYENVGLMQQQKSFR

As for `CCCCCCCCCCCC/C=C/[C@@]12C(=O)O[C@@H](C)[C@@H]1[C@H]1C(=C[C@H]2CCCCCCCCCCCC)C(=O)O[C@H]1C` [(1R,2S,3S,8R,9S,12S)-8-dodecyl-3,12-dimethyl-9-[(1E)-tetradec-1-en-1-yl]-4,11-dioxatricyclo[7.3.0.0,⁶]dodec-6-ene-5,10-dione (6)], the figures for the pIC50 in assay [1], in assay [2] and in assay [3] were 5.49, 4.88 and 5.63, respectively.

For the molecule `CCCCCCCCCCCCC/C=C/[C@@]12C(=O)O[C@@H](C)[C@@H]1[C@H](C(C)=O)C(C(=O)O)=CC2CCCCCCCCCCCC` (stereo partly drawn) [(3S,3aR,4S,7aS)-4-acetyl-7-dodecyl-3-methyl-1-oxo-7a-[(1E)-pentadec-1-en-1-yl]-1,3,3a,4,7,7a-hexahydro-2-benzofuran-5-carboxylic acid (10)], the pIC50 – broadly, −log10 of the IC50, conventionally taken in molar units – in assay [1] is 6.57; in assay [2], 5.33; in assay [4] it was 5.36; in assay [3] it was 6.70; in assay [5] it was 5.77.

As for `CCCCCCCCCCCC[C@@H]1C=C2C(=O)O[C@@]3(C)O[C@@]4(C)OC(=O)[C@]1(CO)[C@H]4[C@@H]23` [(1R,6R,7S,10S,11R,12S)-6-dodecyl-7-(hydroxymethyl)-1,10-dimethyl-2,9,13-trioxatetracyclo[8.2.1.0⁴,.0⁷,]tridec-4-ene-3,8-dione (15)], the pIC50 in assay [1] was 4.69; in assay [2] it was 4.70; in assay [3] it was 4.77.

Turning to `CCCCCCCCCCCCC/C=C/[C@@]12C(=O)O[C@@H](C)[C@@H]1[C@H]1C(=CC2CCCCCCCCCCCC)C(=O)O[C@H]1C` (stereo partly drawn) [(1R,2S,3S,8R,9S,12S)-8-dodecyl-3,12-dimethyl-9-[(1E)-pentadec-1-en-1-yl]-4,11-dioxatricyclo[7.3.0.0,⁶]dodec-6-ene-5,10-dione (7)], the pIC50 in assay [1] is 5.37; in assay [2], 4.50; in assay [3], 5.41.

Turning to `CCCCCCCCCCCC[C@@H]1C=C2C(=O)O[C@@]3(C)O[C@@]4(C)OC(=O)[C@]1(C=O)[C@H]4[C@@H]23` [(1S,4S,5R,10R,11S,12R)-5-dodecyl-1,10-dimethyl-3,8-dioxo-2,9,13-trioxatetracyclo[8.2.1.0⁴,.0⁷,]tridec-6-ene-4-carbaldehyde (14)], the pIC50 in assay [1] is 5.22; in assay [2], 5.03; in assay [3], 5.08.

For `CCCCCCCCCCCCC/C=C/[C@@]12C(=O)O[C@@H](C)[C@@H]1[C@H](C(C)=O)C(C(=O)O)=C[C@H]2CCCCCCCCCCCC` [(3S,3aR,4S,7R,7aS)-4-acetyl-7-dodecyl-3-methyl-1-oxo-7a-[(1E)-pentadec-1-en-1-yl]-1,3,3a,4,7,7a-hexahydro-2-benzofuran-5-carboxylic acid (9)], the pIC50 was 6.57 in assay [1]; 5.59 in assay [2]; 5.41 in assay [4]; 6.66 in assay [3]; 5.50 in assay [5].

As to `CCCCCCCCCCCC/C=C/[C@]12C(=O)O[C@]3(C)O[C@]4(C)OC(=O)C(=C[C@H]1CCCCCCCCCCCC)[C@@H]4[C@@H]32` [Paracaseolide A (13)], the pIC50 in assay [1] was 5.82; in assay [2] it was 5.22; in assay [3], 5.63.
